From patent US20160318856A1, “Substituted Urea eIF2alpha Kinase Activators” (THE BRIGHAM AND WOMEN'S HOSPITAL, INC., priority 2013, published 2016)
Where two headings read alike, the source gives them in different places.

Legend:
[1] = system: eIF2α phosphorylation (eIF2•GTP•Met-tRNAi ternary complex; HRI activation); test: surrogate dual luciferase eIF2α phosphorylation (ternary complex) assay; assay type: cell-based, human; details: for maximal fold induction: Homo sapiens; for C3X: Calculated concentration of compound that will cause three-fold increase in the surrogate eIF2α phosphorylation assay: Table 7
Summary of the method: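 Cell-based dual luciferase reporter: firefly luciferase behind the ATF-4 5′UTR (uORFs) and renilla luciferase behind a uORF-free 5′UTR, read with a dual glow kit. Activity given as firefly/renilla ratio normalised to DMSO wells set at 1, with a rising ratio reflecting reduced ternary complex (e.g., HRI activation).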

[2] = system: CRL-2813 human melanoma cancer cells; test: cell proliferation (SRB) assay, CRL-2813; assay type: cell-based
Summary of the method: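 Cells exposed 5 days to 0.5–20 μM compound, then TCA-fixed and stained with sulforhodamine B. Growth as 100×[(T−T0)/(C−T0)] from absorbance of treated, control and time-zero cultures; cell death as 100×[(T−T0)/T0] where T is below T0.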

[3] = system: ASPC-1; test: cell proliferation assay, ASPC-1; assay type: cell-based; details: Homo sapiens, ASPC1; SRB assay, Table 7; read-out: IC50 ASPC-1
Experimental: (§1) Cells were seeded in 96-well plates and maintained for 5 days in the presence of 0.5 to 20 μM of individual compound, and cell proliferation was measured by the sulforhodamine B (SRB) assay as described previously (see, for example, Palakurthi, S. S. et al. Cancer Research 2000, 60(11), 2919-2925). Briefly, at the end of a 5-day treatment, cells were fixed in 10% cold trichloroacetic acid. Cell number was estimated by measuring the remaining bound dye of sulforhodamine B after washing. The percentage of growth was calculated by using the equation: 100×[(T−T0)/(C−T0)], where T and C represent the absorbance in treated and control cultures at Day 5, and T0 at time zero, respectively. If T is less than T0, cell death has occurred and can be calculated from 100×[(T−T0)/T0].
(§2) The compounds shown in Table 7 were evaluated using for activation of HRI using the dual luciferase surrogate eIF2α phosphorylation assay (see, for example, Chen, T. et al. Nature Chem Biol 2011, 7, 610-616) and for inhibition of cell proliferation using the SRB assay (see, for example, Palakurthi, S. S. et al. Cancer Res 2000, 60, 2919-2925) as described above.

[4] = system: Panc-1; test: cell proliferation (SRB) assay, Panc-1; assay type: cell-based; details: Homo sapiens, Table 7
Experimental: as §1, §2

[5] = system: NIH/3T3 fibroblast cells; test: cell proliferation (SRB) assay, NIH/3T3; assay type: cell-based; details: for fold higher potency on cancer cells compared to non-transformed cells: CRL-2813 human melanoma vs NIH-3T3 fibroblast
Experimental: as §1
The experiments were conducted in triplicate, and each experiment was independently performed three times. IC50=effective dose of drug that inhibit cell proliferation by 50%. Data are shown as Mean±S.E.M.
Compounds I-6p, I-17, I-18 and I-20 were tested in NIH/3T3 fibroblast and CRL-2813 melanoma cancer cells in cell proliferation assay. The experiment was conducted in triplicate and each experiment was independently performed three times. Data are shown as Mean IC50±S.E.M.

[6] = system: CRL-2813 human melanoma cancer cells transfected with HRI-targeting or non-targeting siRNA; test: cell proliferation (SRB) assay after HRI knockdown; assay type: cell-based; details: for fold higher IC50 values in cells transfected with HRI-targeting siRNA vs. non-targeting siRNA: CRL-2813 cells, FIG. 10; for dependence of inhibition of cell proliferation on HRI: HRI siRNA vs non-target siRNA, CRL-2813 (also MCF-7); for fold difference in resistance of cells to inhibition of cell proliferation upon HRI knockdown: average, CRL-2813, FIG. 8
Experimental: as §1
Cell proliferation is a meaningful read-out for determining the specificity of a compound as it captures both on-target and off-target effects of the compound under study. […] If these compounds specifically activate HRI and this activity is required for the inhibition of cell proliferation, then reducing the expression of HRI should blunt their effect on cell proliferation. For this purpose, expression of HRI was knocked down in CRL-2813 human melanoma (about 70% knockdown efficiency) and MCF-7 human breast cancer cells (about 90% knockdown efficiency). These two cell lines were chosen because the HRI knockdown efficiency is lower in CRL-2813 than in MCF-7 cells providing a sort of dose-response data that correlates knockdown efficiency with the resistance of cells to inhibition of cell proliferation. […] Referring to FIG. 5A, CRL-2813 human melanoma cancer cells, and (FIG. 5B) MCF-7 human breast cancer cells were transfected with HRI targeted or non-targeted siRNA, treated with the indicated concentrations of I-6p and cell proliferation was measured by SRB assay. Calculated IC50 for all four compounds tested in CRL-2813 human melanoma cancer cells and MCF-7 human breast cancer cells transfected with non-target siRNA control (NTC) or HRI is shown in FIG. 5C and FIG. 5D, respectively. The experiment was conducted in triplicate and each experiment was independently performed three times. Data are shown as Mean±S.E.M. *NTC=non-target siRNA control.
Referring to FIG. 8, CRL-2813 human melanoma cancer cells were transfected with HRI targeted or non-targeted siRNA, treated with the indicated concentrations of (A) I-14, (B) I-15, (C) III-4 and (D) III-5 and cell proliferation was measured by SRB assay. Calculated IC50 for all four compounds tested in CRL-2813 human melanoma cancer cells transfected with non-target siRNA control (NTC) or HRI is shown in (E). The experiment was conducted in triplicate and each experiment was independently performed three times. Data are shown as Mean±S.E.M. *NTC=non-target siRNA control, IC50=effective dose of drug that inhibit cell proliferation by 50%.
In general, if the affinity of compounds for their molecular target is increased this should result in higher specificity of the compounds in the cell proliferation assay. […] These five compounds, two with average and three with high potency, were tested in cell proliferation assay using CRL-2813 cells transfected with non-targeted siRNA or HRI-targeted siRNA as described above.

[7] = DMSO = 1, maximum tested concentration 20 μM, read-out: Emax: Maximum activity of compound expressed as fold over vehicle
[8] = Homo sapiens, CRL2813, SRB assay, Table 7, read-out: IC50 CRL-2813
[9] = surrogate eIF2α phosphorylation assay, Table 3, read-out: Emax (F/R)
[10] = Homo sapiens, CRL2813, cell proliferation assay, Table 3, cell line not named, values equal CRL-2813 values of Table 8, read-out: IC50
[11] = surrogate eIF2α phosphorylation assay, Table 4, read-out: Emax (F/R)
[12] = Homo sapiens, CRL2813, cell proliferation assay, Table 4, cell line not named, read-out: IC50

| SMILES | IC50 [2, 8] [nM] | IC50 [3] [nM] | IC50 [4] [nM] | maximal fold induction [1, 7] | C3X: Calculated concentration of compound that will cause three-fold increase in the surrogate eIF2α phosphorylation assay [1] [µM] | further results |
| --- | --- | --- | --- | --- | --- | --- |
| NC(=O)c1cc(O[C@H]2CC[C@H](NC(=O)Nc3cccc(OC(F)(F)F)c3)CC2)ccc1C(F)(F)F | 3000 | 2900 | 3000 | 5 | 14 | – |
| O=C(Nc1cccc(OC(F)(F)F)c1)N[C@H]1CC[C@H](Oc2ccc(C(F)(F)F)cc2)CC1 | 900 | 1000 | 1500 | 28 | 0.2 | – |
| CC(=O)Nc1cc(C(F)(F)F)ccc1O[C@H]1CC[C@H](NC(=O)Nc2cccc(OC(F)(F)F)c2)CC1 | 1700 | 2800 | 2500 | 5 | 4 | – |
| O=C(Nc1cccc(OC(F)(F)F)c1)N[C@H]1CC[C@H](Oc2ccc(C(F)(F)F)cc2[N+](=O)[O-])CC1 | 500 | 800 | 1100 | 12 | 0.5 | – |
| O=C(Nc1cccc(C(F)(F)F)c1)N[C@H]1CC[C@H](Oc2ccc(C(F)(F)F)cc2)CC1 | 500 | 900 | 900 | 25 | 0.4 | – |
| O=C(Nc1ccc(OC(F)(F)F)cc1)NC1CCC(Oc2ccc(F)cc2)CC1 (stereo not shown) [Compound I-6p] | – | – | – | – | – | Emax (F/R) ([1]; ternary complex assay, F/R normalized to vehicle (DMSO = 1)): 15.32 F/R; IC50 ([2]; CRL-2813, Table 5, Mean±S.E.M., read-out: IC50): 2700 ± 100 nM; IC50 ([2]; CRL-2813, Table 8, Mean IC50±S.E.M., read-out: IC50 of compounds): 2700 ± 100 nM; IC50 ([2]; cell proliferation assay (SRB, 5 days), cell line not named in Table 1, values equal CRL-2813 values of Tables 5/8, read-out: IC50): 2700 ± 100 nM; fold higher potency on cancer cells compared to non-transformed cells [5]: five-fold higher potency; IC50 ([5]; NIH/3T3, Table 5, Mean±S.E.M., read-out: IC50): 13600 ± 800 nM; IC50 ([5]; NIH/3T3, Table 8, Mean IC50±S.E.M., read-out: IC50 of compounds): 13600 ± 800 nM |
| O=C(Nc1cccc(C(F)(F)F)c1)NC1CCC(Oc2ccccc2F)CC1 (stereo not shown) [Compound I-14, 1-(4-(2-Fluorophenoxy)cyclohexyl)-3-(3-(trifluoromethyl)phenyl)urea] | – | – | – | – | – | maximal fold induction [1, 9]: 7.98; IC50 [2, 10]: 2450 ± 900 nM; fold higher IC50 values in cells transfected with HRI-targeting siRNA vs. non-targeting siRNA [6]: ~7 fold; dependence of inhibition of cell proliferation on HRI [6]: dependent on HRI; fold difference in resistance of cells to inhibition of cell proliferation upon HRI knockdown [6]: ~8 fold |
| O=C(Nc1cccc(C(F)(F)F)c1)NC1CCC(Oc2cccc(F)c2)CC1 (stereo not shown) [Compound I-15, 1-(4-(3-Fluorophenoxy)cyclohexyl)-3-(3-(trifluoromethyl)phenyl)urea] | – | – | – | – | – | maximal fold induction [1, 9]: 7.23; IC50 [2, 10]: 2400 ± 600 nM; fold higher IC50 values in cells transfected with HRI-targeting siRNA vs. non-targeting siRNA [6]: ~7 fold; dependence of inhibition of cell proliferation on HRI [6]: dependent on HRI; fold difference in resistance of cells to inhibition of cell proliferation upon HRI knockdown [6]: ~8 fold |
| O=C(Nc1cccc(C(F)(F)F)c1)NC1CCC(Oc2ccc(C(F)(F)F)cc2)CC1 (stereo not shown) [Compound I-18, 1-(4-(4-(Trifluoromethyl)phenoxy)cyclohexyl)-3-(3-(trifluoromethyl)phenyl)urea] | – | – | – | – | – | maximal fold induction [1, 9]: 25.1; IC50 ([2]; Homo sapiens, CRL2813, CRL-2813, Table 8, Mean IC50±S.E.M., read-out: IC50 of compounds): 460 ± 100 nM; IC50 [2, 10]: 460 ± 100 nM; fold higher potency on cancer cells compared to non-transformed cells [5]: highest discrimination between cancer and non-cancerous cells; IC50 ([5]; Mus musculus, NIH3T3, NIH/3T3, Table 8, Mean IC50±S.E.M., read-out: IC50 of compounds): 3400 ± 100 nM; fold higher IC50 values in cells transfected with HRI-targeting siRNA vs. non-targeting siRNA [6]: ~7.5 fold |
| O=C(Nc1cccc(C(F)(F)F)c1)NC1CCC(OCc2ccc(F)cc2)CC1 (stereo not shown) [III-4, 1-(4-((4-Fluorobenzyl)oxy)cyclohexyl)-3-(3-(trifluoromethyl)phenyl)urea] | – | – | – | – | – | maximal fold induction [1, 11]: 9.58; IC50 [2, 12]: 2650 ± 800 nM; dependence of inhibition of cell proliferation on HRI [6]: dependent on HRI |
| O=C(Nc1cccc(C(F)(F)F)c1)NC1CCCCC1Oc1ccc(C(F)(F)F)cc1 (stereo not shown) [III-5, 1-(2-(4-(Trifluoromethyl)phenoxy)cyclohexyl)-3-(3-(trifluoromethyl)phenyl)urea] | – | – | – | – | – | maximal fold induction [1, 11]: 5.89; IC50 [2, 12]: 3100 ± 1100 nM; dependence of inhibition of cell proliferation on HRI [6]: dependent on HRI |

The next lines start with results.

| IC50 [2, 8] [nM] | IC50 [3] [nM] | IC50 [4] [nM] | SMILES | maximal fold induction [1, 7] | C3X: Calculated concentration of compound that will cause three-fold increase in the surrogate eIF2α phosphorylation assay [1] [µM] | further results |
| --- | --- | --- | --- | --- | --- | --- |
| 1900 | 4000 | 2700 | NC(=O)c1cc(C(F)(F)F)ccc1O[C@H]1CC[C@H](NC(=O)Nc2cccc(C(F)(F)F)c2)CC1 | 8 | 7 | – |
| 2100 | 3000 | 2500 | NC(=O)c1cc(O[C@H]2CC[C@H](NC(=O)Nc3cccc(C(F)(F)F)c3)CC2)ccc1C(F)(F)F | 2.8 | >20 | – |
| 1400 | 3200 | 1900 | NC(=O)c1cc(C(F)(F)F)ccc1O[C@H]1CC[C@H](NC(=O)Nc2cccc(OC(F)(F)F)c2)CC1 | 6 | 8 | – |
| 1900 | 2600 | 1700 | CC(=O)Nc1cc(C(F)(F)F)ccc1O[C@H]1CC[C@H](NC(=O)Nc2cccc(C(F)(F)F)c2)CC1 | 4.2 | 3.5 | – |
| 4000 | > 10000 | 4000 | O=C(Nc1cccc(C(F)(F)F)c1)N[C@H]1CC[C@H](Oc2ccc(C(F)(F)F)cc2[N+](=O)[O-])CC1 | 13 | 5 | – |
